Assay results: PMC11991097 (2025)

Experiments:
[1] = system: Del-1 (DNA, aptamer) ACCGACCGTGCTGGACTCTAAGGTGGAGTTATAGGCTTACTGCCACGTCAGTATGAGCGAGCGTTGCG; assay: magnetic bead elution; AuNP/PDDA colorimetry; conditions: 50 μg/mL (beads), 2 μg/mL (colorimetry, MOPS); elution much lower than Del; ΔA650/A520 about 0.4
[2] = system: Del-1 (DNA, aptamer) ACCGACCGTGCTGGACTCTAAGGTGGAGTTATAGGCTTACTGCCACGTCAGTATGAGCGAGCGTTGCG; assay: magnetic bead elution, ssDNA absorbance, nonlinear fit; conditions: PBS screening buffer; room temperature, 2 h; Del fixed 50 μg/mL, aptamer varied 50–500 nM; capture strand P displaced

Structure (SMILES) | binding [1] | Kd [2] [nM]
CC1(C)C(C(=O)OC(C#N)c2cccc(Oc3ccccc3)c2)C1(C)C (stereo not drawn) | weak | –
CC1(C)[C@H](C(=O)O[C@H](C#N)c2cccc(Oc3ccccc3)c2)[C@@H]1C=C(Br)Br | – | 82.90 ± 6.272
CC1(C)C(C=C(Cl)Cl)C1C(=O)OC(C#N)c1cccc(Oc2ccccc2)c1 (stereo not drawn) | weak | –
